Test results from US10759816B2, “Heterocyclic compounds as RSV inhibitors” (Enanta Pharmaceuticals, Inc., priority 2016, dated 2020).

Tested on: genotype A, "Long" strain RSV
Test: RSV-A in vitro cytoprotection assay in HEp-2 cells (ATPlite readout of cell viability)
Format: cell-based, Human respiratory syncytial virus
Details: human respiratory syncytial virus, HEp-2, HEp-2 cells, genotype A “Long” strain RSV, cytoprotection; read-out: Human RSV-A (“Long” strain) EC50
Outline: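 Cytoprotection measured as ATP-based luminescence (ATPlite) after 4-day incubation of RSV Long-infected HEp-2 cells (8,000/well, 10% FBS DMEM) with 2-fold serial compound dilutions in duplicate. Identically treated virus-free plate gives cytotoxicity; EC50 calculated from viability.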

Row | SMILES | EC50
1 | O=C(NC1CC1)c1cc2c(s1)-c1ccccc1N(C(=O)c1ccc3ccc(-c4ccncc4)cc3n1)CC2 [Example 186] | > 800 nM
2 | Cc1cccc(F)c1NC(=O)c1cc2c(s1)-c1ccccc1N(C(=O)c1cccc(N(C)C3CCS(=O)(=O)C3)n1)CC2 (stereo not drawn) [Example 439] | > 800 nM
3 | COC(C)(C)Cn1cnnc1-c1cccc(C(=O)N2CCc3cc(C(=O)NC4CC4)sc3-c3ccccc32)n1 [Example 125] | > 800 nM
4 | Cc1cccc(F)c1NC(=O)c1cc2c(s1)-c1ccccc1N(C(=O)c1cccc(N[C@@H]3CCOC3)n1)CC2 [Example 456] | < 400 nM
5 | Cc1cnc(N2CCOCC2)c(NC(=O)c2ccc(C(=O)N3CCc4cc(C(=O)Nc5c(C)cccc5F)sc4-c4ccccc43)cc2)c1 [Example 137] | > 800 nM
6 | Cc1cccc(F)c1NC(=O)c1cc2c(s1)-c1ccccc1N(C(=O)c1cccc(-n3cnc(C4CC4)c3)n1)CC2 [Example 149] | < 400 nM
7 | CC(C)(O)c1ccc(-c2cccc(C(=O)N3CCc4cc(C(=O)NC5CC5)sc4-c4ccccc43)n2)cc1 [Example 64] | 400 to 800 nM
8 | Cc1cccc(F)c1NC(=O)c1cc2c(s1)-c1ccccc1N(C(=O)c1cccc(N3CCCCC(F)(F)C3)n1)CC2 [Example 445] | < 400 nM
9 | CC(C)Oc1ccc(-c2cccc(C(=O)N3CCc4cc(C(=O)NC5CC5)sc4-c4ccccc43)n2)cn1 [Example 75] | 400 to 800 nM
10 | O=C(NC1CC1)c1cc2c(s1)-c1ccccc1N(C(=O)c1cccc(NCC3CCOC3)n1)CC2 (stereo not drawn) [Example 291] | > 800 nM
11 | CCS(=O)(=O)CCNc1cccc(C(=O)N2CCc3cc(C(=O)Nc4c(C)cccc4F)sc3-c3ccccc32)n1 [Example 494] | < 400 nM
12 | O=C(NC1CCC(F)(F)CC1)c1cc2c(s1)-c1ccccc1N(C(=O)c1cccc(-c3c[nH]nc3C3CC3)n1)CC2 [Example 175] | < 400 nM
13 | Cc1cccc(F)c1NC(=O)c1cc2c(s1)-c1ccccc1N(C(=O)c1cccc(NCC3(CS(C)(=O)=O)CC3)n1)CC2 [Example 467] | 400 to 800 nM
14 | Cc1cccc(F)c1NC(=O)c1cc2c(s1)-c1ccccc1N(C(=O)c1ccc(-c3c[nH]c4ncccc34)cc1)CC2 [Example 266] | > 800 nM
15 | Cc1cccc(F)c1NC(=O)c1cc2c(s1)-c1ccccc1N(C(=O)c1cccc(-c3cn(CS(C)(=O)=O)nc3C3CC3)n1)CC2 [Example 231] | > 800 nM
16 | COc1ccc(CN(C)c2cccc(C(=O)N3CCc4cc(C(=O)NC5CC5)sc4-c4ccccc43)n2)cc1 [Example 294] | > 800 nM
17 | N#Cc1ccc(-c2cccc(C(=O)N3CCc4cc(C(=O)NC5CC5)sc4-c4ccccc43)n2)cn1 [Example 78] | 400 to 800 nM
18 | COc1ccc(-c2cccc(C(=O)N3CCc4sc(C(=O)NC5CC5)nc4-c4ccccc43)n2)cn1 [Example 109] | > 800 nM
19 | CC(=O)c1ccc(-c2cccc(C(=O)N3CCc4cc(C(=O)NC5CC5)sc4-c4ccccc43)n2)cc1 [Example 63] | 400 to 800 nM
20 | CN(Cc1ccccn1)c1cccc(C(=O)N2CCc3cc(C(=O)NC4CC4)sc3-c3ccccc32)n1 [Example 286] | > 800 nM
21 | Cc1cccc(F)c1NC(=O)c1cc2c(s1)-c1ccccc1N(C(=O)c1ccc(-c3c[nH]c4ccccc34)cc1)CC2 [Example 272] | > 800 nM
22 | COCCNc1cccc(C(=O)N2CCc3cc(C(=O)NC4CC4)sc3-c3ccccc32)n1 [Example 33] | 400 to 800 nM
23 | Cc1cccc(F)c1NC(=O)c1cc2c(s1)-c1ccccc1N(C(=O)c1cccc(N3CCS(=O)(=O)CC3C)n1)CC2 (stereo not drawn) [Example 432] | < 400 nM
24 | Cc1cccc(F)c1NC(=O)c1cc2c(s1)-c1ccccc1N(C(=O)c1cccc(-c3c[nH]nc3/C=C/c3ccccc3)n1)CC2 [Example 265] | > 800 nM

Row | SMILES | EC50
25 | Cc1cccc(F)c1NC(=O)c1cc2c(s1)-c1ccccc1N(C(=O)c1cccc(N3CCC[C@H]3C(C)C)n1)CC2 [Example 483] | < 400 nM
26 | O=C(NC1CC1)c1cc2c(s1)-c1ccccc1N(C(=O)c1cccc(-c3cncn3C3CC3)n1)CC2 [Example 165] | < 400 nM
27 | CC1CN(c2cccc(C(=O)N3CCc4cc(C(=O)NC5CC5)sc4-c4ccccc43)n2)CC(C)O1 (stereo not drawn) [Example 24] | 400 to 800 nM
28 | O=C(NC1CC1)c1cc2c(s1)-c1ccccc1N(C(=O)c1cccc(C3=CCOCC3)n1)CC2 [Example 59] | 400 to 800 nM
29 | Cc1cccc(F)c1NC(=O)c1cc2c(s1)-c1ccccc1N(C(=O)c1cccc(NC3CCS(=O)(=O)CC3)n1)CC2 [Example 454] | > 800 nM
30 | Cc1cccc(F)c1NC(=O)c1cc2c(s1)-c1ccccc1N(C(=O)c1cccc(N3C[C@@H](NS(C)(=O)=O)C[C@@H]3C)n1)CC2 [Example 392] | 400 to 800 nM
31 | COC[C@H]1CCCN1c1cccc(C(=O)N2CCc3cc(C(=O)Nc4c(C)cccc4F)sc3-c3ccc(C4CC4)cc32)n1 [Example 500] | > 800 nM
32 | Cc1cccc(F)c1NC(=O)c1cc2c(s1)-c1ccccc1N(C(=O)c1ccc(Nc3cccnc3N3CC4(CCOCC4)C3)cc1)CC2 [Example 134] | > 800 nM
33 | Cc1cccc(F)c1NC(=O)c1cc2c(s1)-c1ccccc1N(C(=O)c1cccc(N3CCOc4ccccc4C3C)n1)CC2 (stereo not drawn) [Example 364] | > 800 nM
34 | O=C(NC1CC1)c1cc2c(s1)-c1ccccc1N(C(=O)c1cccc(-c3cccc(C(=O)N4CCOCC4)c3)n1)CC2 [Example 69] | 400 to 800 nM
35 | Cc1cccc(F)c1NC(=O)c1cc2c(s1)-c1ccccc1N(C(=O)c1cccc(-c3cnc(C4CC4)n3C3CC3)n1)CC2 [Example 200] | < 400 nM
36 | COc1ccc(-c2cccc(C(=O)N3CCc4cc(C(=O)NC5CC5)sc4-c4ccccc43)n2)cn1 [Example 65] | < 400 nM
37 | COCC(Nc1cccc(C(=O)N2CCc3cc(C(=O)Nc4c(C)cccc4F)sc3-c3ccccc32)n1)C1CC1 (stereo not drawn) [Example 420] | 400 to 800 nM
38 | O=C(NC1CC1)c1cc2c(s1)-c1ccccc1N(C(=O)c1ccc3c(c1)ncn3C1CCOCC1)CC2 [Example 14] | > 800 nM
39 | Cc1cccc(F)c1NC(=O)c1cc2c(s1)-c1ccccc1N(C(=O)c1cccc(N3CC4(COC4)C3)n1)CC2 [Example 426] | > 800 nM
40 | Cc1cccc(F)c1NC(=O)c1cc2c(s1)-c1ccccc1N(C(=O)c1cccc(N3CCNS(=O)(=O)CC3)n1)CC2 [Example 446] | < 400 nM
41 | Cc1cccc(F)c1NC(=O)c1cc2c(s1)-c1ccccc1N(C(=O)c1cccc(NC3CCOCC3)n1)CC2 [Example 453] | < 400 nM
42 | COc1ccc2c(c1)OCCN(c1cccc(C(=O)N3CCc4cc(C(=O)Nc5c(C)cccc5F)sc4-c4ccccc43)n1)C2 [Example 366] | < 400 nM
43 | Cc1cccc(F)c1NC(=O)c1cc2c(s1)-c1ccccc1N(C(=O)c1ccc(NC(=O)N3CCCOCC3)cc1)CC2 [Example 131] | > 800 nM
44 | Cc1cccc(F)c1NC(=O)c1cc2c(s1)-c1ccccc1N(C(=O)c1cccc(-c3cnn4ccccc34)n1)CC2 [Example 244] | < 400 nM
45 | Cc1cccc(F)c1NC(=O)c1cc2c(s1)-c1ccccc1N(C(=O)c1cccc(NCC3CCCS3(=O)=O)n1)CC2 (stereo not drawn) [Example 462] | < 400 nM
46 | Cc1cccc(F)c1NC(=O)c1cc2c(s1)-c1ccccc1N(C(=O)c1cccc(-c3cn[nH]c3)n1)CC2 [Example 213] | < 400 nM
47 | Cc1cccc(F)c1NC(=O)c1cc2c(s1)-c1ccccc1N(C(=O)c1cccc(N(C)Cc3ccc4ccccc4c3)n1)CC2 [Example 354] | > 800 nM
48 | Cc1cccc(F)c1NC(=O)c1cc2c(s1)-c1ccccc1N(C(=O)c1cccc(N3CCCOCC3=O)n1)CC2 [Example 401] | > 800 nM
